The text below walks through data of PMC8779152, “A “Double-Locked” and Enzyme/pH-Activated Theranostic Agent for Accurate Tumor Imaging and Therapy” (Molecules, 2022).

Broadly, the IC50 is the midpoint of a concentration-inhibition curve. A high value points to weaker potency.

The assay concerns the target HDAC1 (Homo sapiens, UniProt Q13547). As to the kind of experiment: HDAC1 enzyme inhibition (assay details not given). It counts as biochemical.

SMILES strings stand for the structures.

Chain of HDAC1 (Q13547 whole entry): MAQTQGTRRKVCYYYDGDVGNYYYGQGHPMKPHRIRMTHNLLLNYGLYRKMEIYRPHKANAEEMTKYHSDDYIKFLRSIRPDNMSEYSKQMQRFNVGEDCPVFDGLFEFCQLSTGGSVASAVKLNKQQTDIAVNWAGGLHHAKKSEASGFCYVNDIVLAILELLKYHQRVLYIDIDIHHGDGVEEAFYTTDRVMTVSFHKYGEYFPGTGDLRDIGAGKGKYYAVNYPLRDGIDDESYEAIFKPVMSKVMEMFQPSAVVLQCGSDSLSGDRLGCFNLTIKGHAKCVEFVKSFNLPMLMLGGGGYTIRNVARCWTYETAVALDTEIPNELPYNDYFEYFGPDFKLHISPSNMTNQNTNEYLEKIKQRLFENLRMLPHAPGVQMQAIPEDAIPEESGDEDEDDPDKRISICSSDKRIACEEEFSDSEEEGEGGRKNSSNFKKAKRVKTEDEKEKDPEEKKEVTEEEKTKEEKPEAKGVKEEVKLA

`Nc1ccc(-c2nc(NCc3ccc(C(=O)NO)cc3)cc3c2[nH]c2ccccc23)cc1` [H6AQ] gave an IC50 of 41 ± 5 nM.

`O=C(NO)c1ccc(CNc2cc3c([nH]c4ccccc43)c(-c3ccc([N+](=O)[O-])cc3)n2)cc1` [H6M] had a concentration for half-maximal inhibition (IC50) of 65 ± 6 nM.
